From PubChem BioAssay AID330 (DTP/NCI, 2004)
Where “and” joins values, the source holds several entries; their conditions need not be identical. Equal entries are not always repeated. Toxic doses and inconclusive results are not listed. How the source made its calls: active means survival T/C of 150% or more; inactive means T/C below 125% in these data.

Test system: P388 leukemia ip, CD2F1 mice, survival T/C
Assay: NCI In Vivo Anticancer Drug Screen. Data for tumor model P388 Leukemia (intraperitoneal) in CD2F1 (CDF1) mice
Conditions: endpoint: median survival time, higher = longer survival
Outline: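 Mice carrying the transplanted tumor received test compound or vehicle. Survival was recorded in each group, and the value is the treated-group measurement divided by that of the vehicle-treated control group.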

[1] = dose: 50.0 mg/kg/injection, schedule: Q01DX009 (ip), vehicle: saline with Tween-80
[2] = dose: 100.0 mg/kg/injection, schedule: Q01DX009 (ip), vehicle: saline with Tween-80
[3] = dose: 200.0 mg/kg/injection, schedule: Q01DX009 (ip), vehicle: saline with Tween-80
[4] = dose: 25.0 mg/kg/injection, schedule: Q01DX005 (ip), vehicle: Klucel (hydroxypropylcellulose) (HPC)
[5] = dose: 50.0 mg/kg/injection, schedule: Q01DX005 (ip), vehicle: Klucel (hydroxypropylcellulose) (HPC)
[6] = dose: 100.0 mg/kg/injection, schedule: Q01DX005 (ip), vehicle: Klucel (hydroxypropylcellulose) (HPC)
[7] = dose: 200.0 mg/kg/injection, schedule: Q01DX005 (ip), vehicle: Klucel (hydroxypropylcellulose) (HPC)
[8] = dose: 60.0 mg/kg/injection, schedule: Q01DX005 (ip), vehicle: Klucel (hydroxypropylcellulose) (HPC)
[9] = dose: 120.0 mg/kg/injection, schedule: Q01DX005 (ip), vehicle: Klucel (hydroxypropylcellulose) (HPC)
[10] = dose: 240.0 mg/kg/injection, schedule: Q01DX005 (ip), vehicle: Klucel (hydroxypropylcellulose) (HPC)
[11] = dose: 50.0 mg/kg/injection, schedule: Q01DX005 (ip), vehicle: saline with Tween-80
[12] = dose: 100.0 mg/kg/injection, schedule: Q01DX005 (ip), vehicle: saline with Tween-80
[13] = dose: 200.0 mg/kg/injection, schedule: Q01DX005 (ip), vehicle: saline with Tween-80
[14] = dose: 100.0 mg/kg/injection, schedule: Q04DX003 (ip), vehicle: saline
[15] = dose: 200.0 mg/kg/injection, schedule: Q04DX003 (ip), vehicle: saline
[16] = dose: 400.0 mg/kg/injection, schedule: Q04DX003 (ip), vehicle: saline
[17] = dose: 60.0 mg/kg/injection, schedule: Q01DX005 (ip), vehicle: saline with Tween-80
[18] = dose: 120.0 mg/kg/injection, schedule: Q01DX005 (ip), vehicle: saline with Tween-80
[19] = dose: 240.0 mg/kg/injection, schedule: Q01DX005 (ip), vehicle: saline with Tween-80

Measured: T/C

C/C=C/C(/C=C/C)(C(=O)OCCN(CC)CC)C(/C=C/C)(/C=C/C)C(=O)OCCN(CC)CC
inactive: dose: 50.0 mg/kg/injection, schedule: Q01DX005 (ip), vehicle: saline 101 % of control | dose: 100.0 mg/kg/injection, schedule: Q01DX005 (ip), vehicle: saline 101 % of control | dose: 200.0 mg/kg/injection, schedule: Q01DX005 (ip), vehicle: saline 97 % of control

COc1ccc(CC2CCCNC2C(=O)O)cc1 (stereo unspecified)
inactive: [1] 114 % of control | [2] 101 % of control | [3] 99 % of control

Cn1nnnc1-c1ccc(C(=O)O)cc1
inactive: [4] 102 % of control | [5] 102 % of control and 91 % of control | [6] 96 % of control | [7] 93 % of control

Nc1ccc(S(=O)(=O)Nc2c(N)nc(SCC(=O)O)[nH]c2=O)cc1
inactive: [8] 92 % of control | [9] 96 % of control | [10] 92 % of control

COc1cc2cc[n+]3c(C)c4cc5c(cc4cc3c2cc1OC)OCO5 (tested in a mixture with another compound)
active: dose: 8.33 mg/kg/injection, schedule: Q01DX009 (ip), vehicle: saline 166 % of control | dose: 12.5 mg/kg/injection, schedule: Q01DX009 (ip), vehicle: saline 175 % of control | dose: 18.7 mg/kg/injection, schedule: Q01DX009 (ip), vehicle: saline 198 % of control
inactive: dose: 0.88 mg/kg/injection, schedule: Q01DX009 (ip), vehicle: saline 124 % of control

COc1cccc2c1C(=O)c1c(O)c3c(c(O)c1C2=O)CC(O)(C(C)=O)CC3OC1CC(N/C(C)=C/C(C)=O)C(O)C(C)O1 (stereo unspecified)
inactive: dose: 3.13 mg/kg/injection, schedule: Q04DX003 (ip), vehicle: distilled water + Tween-80 94 % of control | dose: 6.25 mg/kg/injection, schedule: Q04DX003 (ip), vehicle: distilled water + Tween-80 103 % of control | dose: 12.5 mg/kg/injection, schedule: Q04DX003 (ip), vehicle: distilled water + Tween-80 103 % of control | dose: 25.0 mg/kg/injection, schedule: Q04DX003 (ip), vehicle: distilled water + Tween-80 115 % of control and 119 % of control | dose: 200.0 mg/kg/injection, schedule: Q04DX003 (ip), vehicle: distilled water + Tween-80 102 % of control

COc1cc(/C=C2\NC(=S)N(c3ccccc3)C2=O)ccc1O
inactive: [11] 100 % of control and 109 % of control | [12] 100 % of control and 101 % of control and 86 % of control | [13] 100 % of control and 101 % of control and 86 % of control | dose: 400.0 mg/kg/injection, schedule: Q01DX005 (ip), vehicle: saline with Tween-80 99 % of control and 100 % of control and 104 % of control

CNC(C)(C(=O)O)C(=O)Nc1ccccc1 (stereo unspecified)
inactive: dose: 100.0 mg/kg/injection, schedule: Q01DX001 (ip), vehicle: saline 112 % of control | dose: 200.0 mg/kg/injection, schedule: Q01DX001 (ip), vehicle: saline 123 % of control

COc1ccc2nccc(C(=O)CCC3CCN(C(=O)c4ccc([N+](=O)[O-])cc4)CC3C(Br)CBr)c2c1 (stereo unspecified)
inactive: dose: 100.0 mg/kg/injection, schedule: Q04DX002 (ip), vehicle: saline with Tween-80 108 % of control | dose: 200.0 mg/kg/injection, schedule: Q04DX002 (ip), vehicle: saline with Tween-80 105 % of control

CN1CCN(CC(=O)c2c(-c3ccccc3)[nH]c3ccccc23)CC1
inactive: [14] 101 % of control | [15] 105 % of control | [16] 97 % of control

COc1ccc(S(=O)(=O)N/N=C\c2cc([N+](=O)[O-])cc([N+](=O)[O-])c2O)cc1OC
inactive: [11] 99 % of control | [12] 100 % of control | [13] 99 % of control

Cc1ccccc1NC(=O)c1ccc([N+](=O)[O-])cc1
inactive: [2] 100 % of control | [3] 104 % of control | dose: 400.0 mg/kg/injection, schedule: Q01DX009 (ip), vehicle: saline with Tween-80 90 % of control

N#CCCN(N)S(=O)(=O)c1ccc(Cl)cc1
inactive: [5] 97 % of control | [6] 99 % of control | [7] 96 % of control

CCOC1=C(C#N)C(=O)NC2OC(CO)C(O)C2O1 (stereo unspecified)
inactive: [8] 104 % of control | [9] 104 % of control | [10] 106 % of control

COc1ncnc2nc(Cl)[nH]c12
inactive: [5] 100 % of control | [6] 102 % of control

CC1CCN(C(=O)c2nc3ccccc3[nH]2)CC1
inactive: [5] 102 % of control | [6] 103 % of control | [7] 107 % of control

O=N[O-].[Co].[N-]=C=S.[NH2-].[NH2-].[NH2-].[NH2-]
inactive: dose: 12.5 mg/kg/injection, schedule: Q04DX003 (ip), vehicle: saline with Tween-80 110 % of control | dose: 25.0 mg/kg/injection, schedule: Q04DX003 (ip), vehicle: saline with Tween-80 120 % of control | dose: 50.0 mg/kg/injection, schedule: Q04DX003 (ip), vehicle: saline with Tween-80 120 % of control

O=C(OCCOc1ccc(C(F)(F)F)cc1[N+](=O)[O-])c1ccc(Cl)cc1Cl
inactive: dose: 15.0 mg/kg/injection, schedule: Q01DX005 (ip), vehicle: saline with Tween-80 90 % of control | dose: 30.0 mg/kg/injection, schedule: Q01DX005 (ip), vehicle: saline with Tween-80 91 % of control | [17] 88 % of control

O=C(O)CCN(Cc1ccccc1)Cc1ccccc1
inactive: [14] 100 % of control | [15] 100 % of control | [16] 109 % of control

O=C(c1ccco1)N1CCN(C(=O)c2ccco2)CC1
inactive: [11] 104 % of control | [12] 96 % of control | [13] 100 % of control

Nc1ccc2c(c1)C(=O)N(OS(=O)(=O)c1ccccc1)C2=O
inactive: [17] 106 % of control | [18] 107 % of control | [19] 88 % of control

COC(=O)/C=N/O
inactive: dose: 60.0 mg/kg/injection, schedule: Q01DX005 (ip), vehicle: saline 99 % of control | dose: 120.0 mg/kg/injection, schedule: Q01DX005 (ip), vehicle: saline 102 % of control | dose: 240.0 mg/kg/injection, schedule: Q01DX005 (ip), vehicle: saline 102 % of control

Cc1nc2c(cnn2C)cc1CCc1ccccc1
inactive: [17] 94 % of control | [18] 95 % of control | [19] 103 % of control

NC(CSC(c1ccccc1)c1ccccc1)C(=O)NCC(=O)O (stereo unspecified)
inactive: [5] 99 % of control | [6] 99 % of control | [7] 104 % of control

Cc1ccnc(NS(=O)(=O)c2ccc(N=Nc3nc4[nH]c(N)nc(=S)c4[nH]3)cc2)n1
inactive: dose: 0.2 mg/kg/injection, schedule: Q01DX009 (ip), vehicle: saline with Tween-80 124 % of control | dose: 6.25 mg/kg/injection, schedule: Q01DX009 (ip), vehicle: saline with Tween-80 106 % of control

C=CC(=O)NC(C)(C)CC(=O)O
inactive: dose: 50.0 mg/kg/injection, schedule: Q01DX009 (ip), vehicle: saline 100 % of control | dose: 100.0 mg/kg/injection, schedule: Q01DX009 (ip), vehicle: saline 100 % of control | dose: 200.0 mg/kg/injection, schedule: Q01DX009 (ip), vehicle: saline 99 % of control

CCOC(=O)CCC1CCCCC1=O (stereo unspecified)
inactive: [1] 103 % of control | [2] 93 % of control | [3] 103 % of control

Cc1ccccc1N=C(c1ccccc1)C1C(=O)c2ccccc2C1=O
inactive: dose: 50.0 mg/kg/injection, schedule: Q01DX005 (ip), vehicle: DMSO 100 % of control | [5] 103 % of control | dose: 100.0 mg/kg/injection, schedule: Q01DX005 (ip), vehicle: DMSO 98 % of control | [6] 106 % of control | dose: 200.0 mg/kg/injection, schedule: Q01DX005 (ip), vehicle: DMSO 97 % of control | [7] 103 % of control | dose: 400.0 mg/kg/injection, schedule: Q01DX005 (ip), vehicle: DMSO 101 % of control | dose: 800.0 mg/kg/injection, schedule: Q01DX005 (ip), vehicle: DMSO 97 % of control

CC(C)(C)OC(=O)NCCCCC(NC(=O)OCc1ccccc1)C(=O)O (stereo unspecified)
inactive: [4] 102 % of control | [5] 100 % of control | [6] 101 % of control

CC(=O)OC1C2C(OC3OC(=O)/C(=C\C=C4\CCCC(C)(C)C4)C32)O[C@H]1OC(C)=O (stereo partly specified)
inactive: dose: 6.25 mg/kg/injection, schedule: Q01DX005 (ip), vehicle: Klucel (hydroxypropylcellulose) (HPC) 105 % of control | dose: 12.5 mg/kg/injection, schedule: Q01DX005 (ip), vehicle: Klucel (hydroxypropylcellulose) (HPC) 113 % of control | [4] 86 % of control
